Experimental data taken from US20120251999A1, “VITRIFICATION SYSTEMS AND METHODS” (THE BRIGHAM AND WOMEN'S HOSPITAL, INC., priority 2011, published 2012).
Where “and” joins values, the source holds several entries; their conditions need not be identical. Equal values may be shown once. Read-outs that look alike come from different tables or passages of the source.

Legend:
[1] = ejected into liquid nitrogen
Text: The experimental setup was as described in Song et al. PNAS 2010.

mouse oocytes = test: Parthenogenetic activation of oocytes using SrCl2 (cleavage and blastocyst development); assay type: cell-based
Experimental: Prior to parthenogenetic activation, oocytes were cultured in KSOM medium supplemented with 4 mg/ml BSA for 2 h to allow oocytes to recover from the previous experimental procedure. For parthenogenetic activation, oocytes were incubated in SrCl2 solution in KSOM medium at 37° C. in 5% CO2/95% air for 2 h and then washed three-times with FHM medium. Oocytes were then transferred to KSOM medium and cultured at 37° C. in 5% CO2/95% air.
To determine the optimal SrCl2 concentration to parthenogenetically activate fresh mouse oocytes, we tested four SrCl2 concentrations (10 mM, 20 mM, 50 mM and 100 mM). Over the following 6 days, treated oocytes were examined microscopically every day for embryo development to the cleavage and blastocyst stages. Day 1 is defined as 24 h after treatment. Oocytes incubated in the regular KSOM medium without SrCl2 were used as controls. To determine whether droplet encapsulation has effect on oocyte parthenogenetic activation, oocytes in FHM medium were ejected into a center well culture dish containing 400 μl of FHM medium. To minimize the effects of shear stress generated at the ejector tip when using medium instead of CPAs, the flow rate of nitrogen gas was reduced to 0.6 SLPM to obtain droplet sizes similar to those obtained at 0.8 SLPM using CPAs. Oocytes were retrieved and cultured in KSOM medium at 37° C. in 5% CO2/95% air for 2 h before parthenogenetic activation. SrCl2 solution at the concentration of 50 mM, which gave the highest cleavage and blastocyst rates with control oocytes, was used for the activation of oocytes following ejection into the medium.

[2] = 10 mM SrCl2, fresh control oocytes
[3] = 10 mM SrCl2, fresh control oocytes, 81 initiated
[4] = 20 mM SrCl2, fresh control oocytes
[5] = 20 mM SrCl2, fresh control oocytes, 82 initiated
[6] = 50 mM SrCl2, fresh control oocytes
[7] = 50 mM SrCl2, fresh control oocytes, 79 initiated
[8] = 50 mM SrCl2, oocytes after ejection with medium
[9] = 100 mM SrCl2, fresh control oocytes
[10] = 100 mM SrCl2, fresh control oocytes, 88 initiated

SMILES: CC(O)CO (stereo not shown) [PrOH, 1,2-propanediol]
- vitrification of droplets ([1]; 194 μm droplets, 3 M PrOH): vitrified
- vitrification of droplets ([1]; 525 μm droplets, 4.5 M PrOH): non-vitrified

SMILES: [Cl-].[Cl-].[Sr+2] [SrCl2]
- Blastocysts developed (%) (mouse oocytes; [2]): 0 (0)
- Oocytes cleaved (%) (mouse oocytes; [2]): 3.7%
- Blastocysts developed (number) (mouse oocytes; [3]): 0 (0)
- No. of Oocytes cleaved (mouse oocytes; [3]): 3
- Blastocysts developed (%) (mouse oocytes; [4]): 15.9%
- Oocytes cleaved (%) (mouse oocytes; [4]): 46.3%
- Blastocysts developed (number) (mouse oocytes; [5]): 13
- No. of Oocytes cleaved (mouse oocytes; [5]): 38
- Blastocysts developed (%) (mouse oocytes; [6]): 49.4%
- Oocytes cleaved (%) (mouse oocytes; [6]): 88.9% and 88.6%
- Blastocysts developed (number) (mouse oocytes; [7]): 33
- No. of Oocytes cleaved (mouse oocytes; [7]): 70
- Blastocysts developed (%) (mouse oocytes; [8]): 26.0%
- Oocytes cleaved (%) (mouse oocytes; [8]): 96% and 97.0%
- Blastocysts developed (number) (mouse oocytes; 50 mM SrCl2, oocytes after ejection with medium, 100 initiated): 26
- No. of Oocytes cleaved (mouse oocytes; 50 mM SrCl2, oocytes after encapsulation in medium droplets and ejection into medium, 100 initiated): 96
- Blastocysts developed (%) (mouse oocytes; [9]): 2.3%
- Oocytes cleaved (%) (mouse oocytes; [9]): 48.9%
- Blastocysts developed (number) (mouse oocytes; [10]): 2
- No. of Oocytes cleaved (mouse oocytes; [10]): 43
